# Reference: PubChem BioAssay AID652070 (Broad Institute, 2013)
# Records with an inconclusive call do not appear.
# Tested on: HT29 HRAS cells, caspase 3/7 luminescence, apoptosis
# Assay: caspase 3/7 activation in HT29 HRAS cells, mechanism study for HRAS target identification, cell-based, caspase 3/7 luminescence, multiple timepoints, dry powder (AID 652070)
# Details: measured here: second timepoint caspase 3/7
structure (smiles),measurement,value
O=C(NCCOCCOCCOc1ccc(N(C(=O)CCl)C(C(=O)NCCc2ccccc2)c2cccs2)cc1Cl)c1ccc(COC2C#CCCCCC2)cc1 (stereo unspecified),AC40,> 35 µM
